Marks after values point to notes of the source that are not given here.
Columns and labels:
[1] = tested on: adjuvant arthritis; assay: Established adjuvant arthritis model (chronic adjuvant arthritis test); assay type: in vivo, male Charles River Lewis rats; conditions: 7 days; for Change in Paw Volume (ml) / Change in body weight(g): difference from day 21 to day 28; for % Change in plasma fibrinogen: relative to vehicle-treated arthritic animals
[2] = tested on: adjuvant arthritis; assay: as above; assay type: in vivo, male Charles River Lewis rats; conditions: for Change in Paw Volume (ml) / Change in body weight(g): difference from day 21 to day 28; for % Change in plasma fibrinogen: relative to vehicle-treated arthritic animals
Protocol: That the compounds of this invention are effective anti-arthritic agents can be seen from the results obtained when these compounds are administered to rats in accordance with the chronic adjuvant arthritis test system disclosed in Billingham and Davies "Handbook of Experimental Pharmacology" (editors J.R. Vane and S.H. Ferreira) Vol. 50/II, pg. 108-144, Springer-Verlag, Berlin, 1979). In this procedure, adjuvant arthritis was induced by the injection on day 0 to 0.10 ml of adjuvant (a suspension of heat-killed, dessicated Mycobacterium butyricum, 0.5% (w/v), in heavy mineral oil containing 0.2% digitonin) subplantarly into the right hind paw ("developing" model) or the base of the tail ("established" model) of male Charles River Lewis rats (120-140 g) that were housed individually and given food and water ad lib. Paw volumes (both hind paws) were measured immediately after injection of the adjuvant. Paw volumes were also measured at selected time intervals to follow the development of inflammation-induced swelling in the arthritic paws by immersion of the paw to the level of the lateral malleolus in a mercury plethysmograph. In the established adjuvant arthritis model [Table 2], the arthritis was allowed to develop untreated for 21 days and then the arthritic animals were divided into experimental groups with approximately equal mean hind paw volumes. Starting on day 21, the arthritic animals were treated by intubation once a day with drugs for 7 days (Tween 80 as vehicle). Arthritic control animals received daily doses of the vehicle only. On day 28, the animals were sacrificed, plasma was collected and plasma fibrinogen levels were determined as described above. Antiinflammatory activity was determined by comparing the change in paw swelling in drug-treated arthritic animals (combined hind paw volume on day 28 minus combined hind paw volume on day 21) with the change in paw swelling in vehicle-treated arthritic animals. Drug-induced changes in plasma fibrinogen were also used to assess the antiinflammatory effects of the test drugs.

[3] = Serum triglycerides and cholesterol in normal animals treated for 14 days; assay type: in vivo, rats; conditions: for Cholesterol (% change): serum, normal rats, vs vehicle-treated normal rats
Protocol: Normal animals were also treated with the test retinoids for 14 days and serum samples were collected for the determination of serum triglycerides and cholesterol. Triglyceride and cholesterol levels in the drug-treated animals were compared with triglyceride and cholesterol levels in vehicle-treated animals.

[4] = tested on: adjuvant arthritis; assay: Developing adjuvant arthritis model (chronic adjuvant arthritis test); assay type: in vivo, male Charles River Lewis rats; conditions: for % Change in Paw Volume (day 23) left / % Change in Paw Volume (day 23) right / % Change in plasma fibrinogen: vs vehicle-treated arthritic animals; for Body Weight gain(g): body weight on day 23 minus day 0
Protocol: That the compounds of this invention are effective anti-arthritic agents can be seen from the results obtained when these compounds are administered to rats in accordance with the chronic adjuvant arthritis test system disclosed in Billingham and Davies "Handbook of Experimental Pharmacology" (editors J.R. Vane and S.H. Ferreira) Vol. 50/II, pg. 108-144, Springer-Verlag, Berlin, 1979). In this procedure, adjuvant arthritis was induced by the injection on day 0 to 0.10 ml of adjuvant (a suspension of heat-killed, dessicated Mycobacterium butyricum, 0.5% (w/v), in heavy mineral oil containing 0.2% digitonin) subplantarly into the right hind paw ("developing" model) or the base of the tail ("established" model) of male Charles River Lewis rats (120-140 g) that were housed individually and given food and water ad lib. Paw volumes (both hind paws) were measured immediately after injection of the adjuvant. Paw volumes were also measured at selected time intervals to follow the development of inflammation-induced swelling in the arthritic paws by immersion of the paw to the level of the lateral malleolus in a mercury plethysmograph. In the developing adjuvant arthritis model [Table 1], drugs were administered once a day (starting on the day of adjuvant injection and continuing for 23 days) by intubation using Tween 80 (polyoxyethylene sorbitan mono-oleate) at a dose of 0.25 ml/100 g body weight as the vehicle. Arthritic control rats received daily doses of the vehicle only. On day 23, i.e., approximately 24 hours after the last dose of drug, the rats were sacrificed, plasma was collected and plasma fibrinogen levels were determined (ammonium sulfate turbidimetric method) as described by Exner et al., Amer. J. Clin. Path., 71:521-527 (1979). Anti-inflammatory activity of the test drugs were determined by comparing the extent of paw swelling (paw volume on day 23 minus the paw volume on day 0) in drug-treated arthritic rats with the extent of paw swelling in the vehicle-treated arthritic rats. Drug induced decreases in the level of plasma fibrinogen, an acute phase protein that is elevated in the plasma of rats with adjuvant-induced arthritis, were also used to quantitiate the anti-inflammatory activity.

[5] = 75 µMoles/Kg p.o. tween 80, 7 days
[6] = 25 μ Moles/Kg Po. Tween 80, daily for 23 days
[7] = 75 μ Moles/Kg Po. Tween 80, daily for 23 days

For `CCCCOc1ccsc1/C=C/C(C)=C/C=C/C(C)=C/C(=O)O`, the “Change in Paw Volume (ml)” value ([1]; 75 µMoles/Kg i.p. corn oil) was -0.59* (1.14) ml, the “Change in body weight(g)” value ([1]; 75 µMoles/Kg i.p. corn oil) was 11(10) g and the “% Change in plasma fibrinogen” value ([1]; 75 µMoles/Kg i.p. corn oil) was -55* %.
With `CCCCCCCCCOc1cc(C)sc1/C=C/C(C)=C/C=C/C(C)=C/C(=O)O` the “Change in Paw Volume (ml)” value [2, 5] was 0.06* (1.03) ml, the “Change in body weight(g)” value [2, 5] was 15(14) g and the “% Change in plasma fibrinogen” value [2, 5] was -25* %.
With `CC1=C(/C=C/C(C)=C/C=C/C(C)=C/C(=O)Nc2ccc(O)cc2)C(C)(C)CCC1` [4-hydroxyphenyl retinamide] the hypertriglyceridemia ([3]; no dose given) was “hypertriglyceridemia” and the serum cholesterol elevation ([3]; no dose given) was “serum cholesterol elevation”.
With `CCCCCCCCCOc1ccsc1/C=C/C(C)=C/C=C/C(C)=C/C(=O)O` [the 1st table, row 4] the “% Change in Paw Volume (day 23) left” value [4, 6] was -50* %, the “% Change in Paw Volume (day 23) right” value [4, 6] was -50* % and the “% Change in plasma fibrinogen” value [4, 6] was -45* %. For the same compound, the “Body Weight gain(g)” value ([4]; 25 μ Moles/Kg Po. Tween 80) was 31(37) g, the “% Change in Paw Volume (day 23) left” value [4, 7] was -84* % and the “% Change in Paw Volume (day 23) right” value [4, 7] was -68* %. For the same compound, the “% Change in plasma fibrinogen” value [4, 7] was -55* %, the “Body Weight gain(g)” value ([4]; 75 μ Moles/Kg Po. Tween 80) was 27(30) g and the “Cholesterol (% change)” value ([3]; 25 μ Moles/Kg Po. Tween 80) was -14* %. The “Cholesterol (% change)” value ([3]; 75 μ Moles/Kg Po. Tween 80) was -25* %.
With `CC1=C(/C=C/C(C)=C/C=C/C(C)=C/C(=O)Nc2ccc(O)cc2)C(C)(C)CCC1` [the 1st table, row 6, 4-hydroxyphenyl retinamide, reference compound] the “% Change in Paw Volume (day 23) left” value [4, 7] was -51* %, the “% Change in Paw Volume (day 23) right” value [4, 7] was -49* % and the “% Change in plasma fibrinogen” value [4, 7] was -42* %. The “Body Weight gain(g)” value ([4]; 75 μ Moles/Kg Po. Tween 80) was 39(37) g and the “Cholesterol (% change)” value ([3]; 75 μ Moles/Kg Po. Tween 80) was “+66* %”.
In the case of `CCCCCCCCCOc1ccsc1/C=C/C(C)=C/C=C/C(C)=C/C(=O)O` [the 2nd table, row 3], the “Change in Paw Volume (ml)” value ([2]; 25 µMoles/Kg p.o., 7 days) is reported as 0.15*(0.84) ml, the “Change in body weight(g)” value ([2]; 25 µMoles/Kg p.o., 7 days) is reported as 9(14) g and the “% Change in plasma fibrinogen” value ([2]; 25 µMoles/Kg p.o., 7 days) is reported as -32* %. For the same compound, the “Change in Paw Volume (ml)” value [2, 5] was -0.63*(0.61) ml, the “Change in body weight(g)” value [2, 5] was 5*(15) g and the “% Change in plasma fibrinogen” value [2, 5] was -34* %.
For `CCCCCCCCCOc1ccsc1/C=C/C(C)=C/C=C/C(C)=C/C(=O)O` [the 2nd table, row 5], the “Change in Paw Volume (ml)” value ([1]; 10 µMoles/Kg i.p. corn oil) was 0.18* (0.86) ml, the “Change in body weight(g)” value ([1]; 10 µMoles/Kg i.p. corn oil) was 11(15) g and the “% Change in plasma fibrinogen” value ([1]; 10 µMoles/Kg i.p. corn oil) was -18* %.

Source: patent EP0510473A1, “Thienyl-nonatetraenoic acid derivatives with anti-rheumatic activity” (F. HOFFMANN-LA ROCHE AG, priority 1991, dated 1992)
